This assay has as its target T1, human PAH with the R408W mutation (Homo sapiens, UniProt P00439, R408W).
T1 construct: expressed in transfected cells
T1 sequence (P00439 1-452 R408W): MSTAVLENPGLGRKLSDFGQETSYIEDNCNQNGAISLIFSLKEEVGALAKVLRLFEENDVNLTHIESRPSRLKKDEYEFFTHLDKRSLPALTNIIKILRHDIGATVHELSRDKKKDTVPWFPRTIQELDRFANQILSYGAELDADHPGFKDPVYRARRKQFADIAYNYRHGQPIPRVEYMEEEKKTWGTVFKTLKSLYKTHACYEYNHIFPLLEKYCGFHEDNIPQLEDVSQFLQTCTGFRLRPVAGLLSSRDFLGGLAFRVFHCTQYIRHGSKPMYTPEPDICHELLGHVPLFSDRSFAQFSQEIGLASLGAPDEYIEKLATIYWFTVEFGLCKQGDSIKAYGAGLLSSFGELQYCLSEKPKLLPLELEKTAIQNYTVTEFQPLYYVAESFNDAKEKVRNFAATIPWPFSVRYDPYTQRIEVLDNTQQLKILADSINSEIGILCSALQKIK
Put plainly: Cell Based Phenylalanine Flux Assay. Details: scale not given here. The settings on record: 13C-Tyrosine by LC-MS, average where tested multiple times.

The mark [1] stands for this setting: A375 cells expressing human R408W PAH, 24 hrs compound incubation, read-out: AC50.
[2] abbreviates: A375 R408W cells, 24 hrs with compound, then 20 μM sepiapterin and 800 μM 13C9,15N-Phenylalanine for 4 hours, read-out: AC50.
Setting [3] is: A375 R408W cells, 24 hrs with compound, then 20 μM sepiapterin and 800 μM 13C9,15N-Phenylalanine for 4 hours.

Structures can show the parent of a compound that is named as a salt. Where two headings read alike, the source gives them in different places.

One may read the AC50 as the concentration at which the activity in the assay is half-maximal.

`O=C(c1cn[nH]c1Cl)N1CCc2[nH]cnc2C1c1ccc2ccccc2n1` (stereo in doubt) [Example 124, (R)-(5-chloro-1H-pyrazol-4-yl)(4-(quinolin-2-yl)-6,7-dihydro-1H-imidazo[4,5-c]pyridin-5(4H)-yl)methanone]: the AC50 under setting [1] lay within 0.5 to 1 µM.
Still for that read-out and setting: the value for `COCc1ccc2c(C(=O)N3CCc4[nH]cnc4[C@H]3c3cc4ccccc4cn3)cnn2c1` [Example 314, (R)-(4-(isoquinolin-3-yl)-6,7-dihydro-1H-imidazo[4,5-c]pyridin-5(4H)-yl)(6-(methoxymethyl)pyrazolo[1,5-a]pyridin-3-yl)methanone] was under 0.5 µM.
Turning to `Cc1nc(C(C)(C)O)oc1C(=O)N1CCc2[nH]cnc2[C@H]1c1ncc2ccccc2n1` [Example 141, (S)-(2-(2-hydroxypropan-2-yl)-4-methyloxazol-5-yl)(4-(quinazolin-2-yl)-6,7-dihydro-1H-imidazo[4,5-c]pyridin-5(4H)-yl)methanone hydrochloride], under setting [1], the AC50 was under 0.5 µM.
Still for that read-out and setting: the value for `Cc1ncc(CC(=O)N2CCc3[nH]cnc3[C@H]2c2cc3ccccc3cn2)o1` [Example 372, (R)-1-(4-(isoquinolin-3-yl)-6,7-dihydro-1H-imidazo[4,5-c]pyridin-5(4H)-yl)-2-(2-methyloxazol-5-yl)ethanone] was under 0.5 µM.
As to `CC(C)(F)c1ccc2c(C(=O)N3CCc4[nH]cnc4C3c3ccc4ccccc4n3)cnn2c1` (stereo not drawn), the concentration at half-maximal activity (AC50) under setting [2] is over 5 µM.
The same measure, in the same setting: the value for `O=C(Cc1coc(C(F)F)n1)N1CCc2nc[nH]c2[C@H]1c1cn2ccccc2n1` (single isomer, unassigned) was over 5 µM.
On to `C[C@H]1CN(C(=O)c2nnc(-c3ccc(F)cn3)o2)[C@H](c2cc3ccccc3cn2)c2nc[nH]c21` [Example 496, (5-(5-fluoropyridin-2-yl)-1,3,4-oxadiazol-2-yl)((4R,7S)-4-(isoquinolin-3-yl)-7-methyl-6,7-dihydro-1H-imidazo[4,5-c]pyridin-5(4H)-yl)methanone], for which, under setting [1], the AC50 lay in the range of 1 to 5 µM.
Still for that read-out and setting: the value for `Cc1cccc(-c2ccc3c(C(=O)N4CCc5[nH]cnc5[C@H]4c4cc5ccccc5cn4)cnn3c2)n1` [Example 479, (R)-(4-(isoquinolin-3-yl)-6,7-dihydro-1H-imidazo[4,5-c]pyridin-5(4H)-yl)(6-(6-methylpyridin-2-yl)pyrazolo[1,5-a]pyridin-3-yl)methanone] was under 0.5 µM; that for `Cn1cc(-c2nnc(C(=O)N3CCc4[nH]cnc4[C@H]3c3cc4ccccc4cn3)o2)cn1` [Example 322, (R)-(4-(isoquinolin-3-yl)-6,7-dihydro-1H-imidazo[4,5-c]pyridin-5(4H)-yl)(5-(1-methyl-1H-pyrazol-4-yl)-1,3,4-oxadiazol-2-yl)methanone] was under 0.5 µM; that for `O=C(c1cnn2ccc(Cl)cc12)N1CCc2[nH]cnc2[C@H]1c1cc2ccccc2cn1` [Example 462, (R)-(5-chloropyrazolo[1,5-a]pyridin-3-yl)(4-(isoquinolin-3-yl)-6,7-dihydro-1H-imidazo[4,5-c]pyridin-5(4H)-yl)methanone] was under 0.5 µM.
For `FC(F)c1nnc(N2CCc3[nH]cnc3[C@H]2c2ccc3ccccc3n2)o1` (single isomer, unassigned), under setting [2], the AC50 is over 5 µM.
On to `N#Cc1ncoc1C(=O)N1CCc2[nH]cnc2[C@H]1c1ncc2ccccc2n1` [Example 147, (S)-5-(4-(quinazolin-2-yl)-4,5,6,7-tetrahydro-1H-imidazo[4,5-c]pyridine-5-carbonyl)oxazole-4-carbonitrile], for which the concentration at half-maximal activity (AC50) under setting [1] was under 0.5 µM.
As to `CC1CN(C(=O)c2nnc(NC3CC3)o2)C(c2cc3ccccc3cn2)c2nc[nH]c21` (stereo not drawn), under setting [2], the half-maximal activity concentration (AC50) lay in the range of 1 to 5 µM.
Consider `CN(C)C(=O)c1nnc(N2CCc3[nH]cnc3[C@H]2c2cc3ccccc3cn2)o1` [Example 363, (R)-5-(4-(isoquinolin-3-yl)-6,7-dihydro-1H-imidazo[4,5-c]pyridin-5(4H)-yl)-N,N-dimethyl-1,3,4-oxadiazole-2-carboxamide], for which the half-maximal activity concentration (AC50) under setting [1] is 0.5 to 1 µM.
Still for that read-out and setting: the value for `C[C@H]1CN(C(=O)c2nnc(-c3ccccn3)o2)[C@H](c2cc3ccccc3cn2)c2nc[nH]c21` (single isomer, unassigned) [Example 385] was 0.5 to 1 µM; that for `O=C(c1ccnn1-c1ccccn1)N1CCc2[nH]cnc2C1c1ccc2ccccc2n1` (stereo in doubt) [Example 261, (R)-(1-(pyridin-2-yl)-1H-pyrazol-5-yl)(4-(quinolin-2-yl)-6,7-dihydro-1H-imidazo[4,5-c]pyridin-5(4H)-yl)methanone] was under 0.5 µM; that for `O=C(c1ccnn1C(F)F)N1CCc2[nH]cnc2[C@@H]1c1cc2ccccc2nn1` [Example 214, (R)-(4-(cinnolin-3-yl)-6,7-dihydro-1H-imidazo[4,5-c]pyridin-5(4H)-yl)(1-(difluoromethyl)-1H-pyrazol-5-yl)methanone] was 1 to 5 µM.
On to `O=C(c1nnc(-c2ccccn2)o1)N1CCCc2[nH]cnc2C1c1cn2ccccc2n1` (stereo not drawn), for which the AC50 under setting [2] is over 5 µM.
On the same count and under the same terms, the value for `O=C(C1CC1)N1CCc2[nH]cnc2C1c1ccc2ccccc2n1` (stereo not drawn) was 1 to 5 µM.
As for `Cc1nnc(CC(=O)N2CCc3[nH]cnc3C2c2cn3ccccc3n2)o1` (stereo not drawn), the concentration at half-maximal activity (AC50) entry under setting [3] was “E, E”.
Take `O=C(CCc1nnc(C(F)F)o1)N1CCc2[nH]cnc2C1c1cn2ccccc2n1` (stereo not drawn): under setting [2], the AC50 is over 5 µM.
As to `O=C(c1cnn(CC(F)(F)F)c1C(F)F)N1CCc2[nH]cnc2C1c1ccc2ccccc2n1` (stereo in doubt) [Example 126, (S)-(5-(difluoromethyl)-1-(2,2,2-trifluoroethyl)-1H-pyrazol-4-yl)(4-(quinolin-2-yl)-6,7-dihydro-1H-imidazo[4,5-c]pyridin-5(4H)-yl)methanone], the concentration at half-maximal activity (AC50) under setting [1] is over 5 µM.
As for `O=C(c1cnn2ccccc12)N1CCc2[nH]cnc2[C@H]1c1cn2ccccc2n1` [Example 225, (R)-(4-(imidazo[1,2-a]pyridin-2-yl)-6,7-dihydro-1H-imidazo[4,5-c]pyridin-5(4H)-yl)(pyrazolo[1,5-a]pyridin-3-yl)methanone], the half-maximal activity concentration (AC50) under setting [1] was under 0.5 µM.
Turning to `Cc1nnc(C(=O)N2CC(C)c3[nH]cnc3C2c2cc3ccccc3cn2)o1` (stereo not drawn), the AC50 under setting [2] was 1 to 5 µM.
Still for that read-out and setting: under `Cc1nnc(C(=O)N2CCc3[nH]cnc3C2c2cn3ccccc3n2)o1` (stereo not drawn) stands 1 to 5 µM.
Same read-out and setting: the value for `O=C(c1nnc(-c2ccccn2)o1)N1CCCc2[nH]cnc2C1c1cc2ccccc2cn1` (stereo not drawn) was 1 to 5 µM; that for `O=C(c1nnc(-c2ccccn2)o1)N1CCc2[nH]cnc2C1c1cn2ccccc2n1` (stereo not drawn) was 1 to 5 µM.
Take `C[C@H](O)c1nc(C(F)F)c(C(=O)N2CCc3[nH]cnc3C2c2ccc3ccccc3n2)o1` (stereo in doubt) [Example 121, (4-(difluoromethyl)-2-((S)-1-hydroxyethyl)oxazol-5-yl)((S)-4-(quinolin-2-yl)-6,7-dihydro-1H-imidazo[4,5-c]pyridin-5(4H)-yl)methanone]: the concentration at half-maximal activity (AC50) under setting [1] was 1 to 5 µM.
On to `CC1CN(C(=O)c2cnn3cc(CN(C)C)ccc23)C(c2cc3ccccc3cn2)c2nc[nH]c21` (stereo not drawn) [listing 1 of 2 here], for which, under setting [2], the AC50 was over 5 µM.
Still for that read-out and setting: the value for `O=C(c1ccn[nH]1)N1CCc2[nH]cnc2C1c1ccc2ccccc2n1` (stereo not drawn) was 1 to 5 µM.
Take `Cc1nc(C(C)(C)O)oc1C(=O)N1CCc2[nH]cnc2[C@@H]1c1ncc2ccccc2n1` [Example 142, (R)-(2-(2-hydroxypropan-2-yl)-4-methyloxazol-5-yl)(4-(quinazolin-2-yl)-6,7-dihydro-1H-imidazo[4,5-c]pyridin-5(4H)-yl)methanone hydrochloride]: the half-maximal activity concentration (AC50) under setting [1] is over 5 µM.
As to `COCc1ccc2c(C(=O)N3CC(C)c4[nH]cnc4C3c3cc4ccccc4cn3)cnn2c1` (stereo not drawn), under setting [2], the half-maximal activity concentration (AC50) fell in the range of 1 to 5 µM.
Same read-out and setting: under `CC1CN(C(=O)c2cnn3cc(CN(C)C)ccc23)C(c2cc3ccccc3cn2)c2nc[nH]c21` (stereo not drawn) [listing 2 of 2 here] stands 1 to 5 µM.
Regarding `O=C(c1cnn2cccc(F)c12)N1CCc2[nH]cnc2[C@H]1c1cc2ccccc2cn1` [Example 357, (R)-(4-fluoropyrazolo[1,5-a]pyridin-3-yl)(4-(isoquinolin-3-yl)-6,7-dihydro-1H-imidazo[4,5-c]pyridin-5(4H)-yl)methanone], the AC50 under setting [1] was under 0.5 µM.
On to `CC(C)(O)c1ncc(C(=O)N2CCc3[nH]cnc3[C@H]2c2cn3ccccc3n2)o1` (single isomer, unassigned), for which the AC50 under setting [2] was over 5 µM.
Still for that read-out and setting: the value for `O=C(C1CN(c2ccccn2)C1)N1CCc2[nH]cnc2C1c1ccc2ccccc2n1` (stereo not drawn) was over 5 µM.
With `Cc1nnc(C(=O)N2CCc3[nH]cnc3[C@@H]2c2cc3ccccc3cn2)o1` [Example 319, (S)-(4-(isoquinolin-3-yl)-6,7-dihydro-1H-imidazo[4,5-c]pyridin-5(4H)-yl)(5-methyl-1,3,4-oxadiazol-2-yl)methanone], the AC50 under setting [1] is over 5 µM.
On to `Cn1ccc(-c2nc(C(F)F)c(C(=O)N3CCc4[nH]cnc4C3c3ncc4ccccc4n3)o2)n1` (stereo not drawn), for which the concentration at half-maximal activity (AC50) entry under setting [3] is reported as “E, E”.
Take `N#Cc1ncoc1C(=O)N1CCc2[nH]cnc2C1c1ccc2ccccc2n1` (stereo in doubt) [Example 58, (S)-5-(4-(quinolin-2-yl)-4,5,6,7-tetrahydro-1H-imidazo[4,5-c]pyridine-5-carbonyl)oxazole-4-carbonitrile]: the AC50 under setting [1] lay within 1 to 5 µM.

The values above are taken from patent US20250262201A1, “COMPOUNDS AND METHODS USEFUL FOR STABILIZING PHENYLALANINE HYDROXYLASE MUTATIONS” (Agios Pharmaceuticals, Inc., priority 2022, published 2025).
